Experiments:
lens elasticity [1] = assay: Pharmacological Test 3: effect of once-daily instillation of sodium 4-phenylbutyrate for 2 weeks on lens elasticity; type: in vivo, C57BL/6J mice; conditions: for Lens elasticity improvement: 2.5 μL/eye, vs vehicle control
Protocol: The effect of once-daily instillation of sodium 4-phenylbutyrate for 2 weeks on the lens elasticity was examined. A vehicle comprising 0.1% (w/v) of ethyl pyruvate, 0.269% (w/v) of sodium dihydrogenphosphate monohydrate (NaH2PO4H2O), 0.433% (w/v) of disodium hydrogenphosphate (Na2HPO4), 0.2% (w/v) of hydroxypropyl methylcellulose, and 0.5% (w/v) of NaCl was prepared. Sodium 4-phenylbutyrate was dissolved with the addition of the vehicle to prepare a 3.0% (w/v) solution. The resulting 3.0% (w/v) solution was diluted with the vehicle to prepare a 1.0% (w/v) solution. Further, the resulting 1.0% (w/v) solution was diluted with the vehicle to prepare a 0.3% (w/v) solution. The total amount of each sample to be used in one day was prepared before use. EV06 was sonicated with the addition of the vehicle to prepare a 1.5% (w/v) solution. The total amount of the sample to be used in one day was prepared before use. 1) Each test sample (2.5 μL/eye) was instilled into the right eye of 8-month-old C57BL/6J mice with a Pipetman once per day (QD; around 9:00) or 3 times per day (TID; around 9:00, 13:00 and 17:00) for 14 days. 2) After the final instillation, the mice were euthanized by carbon dioxide inhalation, and then the eyeballs were extracted and rinsed with Hank's balanced salt solution (HBSS). 3) The sclera near the optic nerve was cut with a razor, the lens was removed through the incision, and the removed lens was immersed in HBSS. 4) The lens was placed on a glass slide, and an all-in-one fluorescence microscope BZ-9000 (Keyence) was used to capture an image of the lens (Image a). 5) Next, one cover glass (Corning^(registered trade mark) 22×22 mm Square) was placed on the lens, and an image in which the thickness of the lens changed due to the weight was similarly captured (Image b). 6) A change in the lens diameter was calculated from Equation 1 wherein the lens diameter of Image a is subtracted from the lens diameter of Image b, as described below. Then, the lens elasticity improvement of each sample group compared with the vehicle control group was calculated from Equation 2 described below. The mean of the vehicle control group was based on 5 eyes. The mean of each sodium 4-phenylbutyrate sample group and the mean of each EV06 sample group were based on 9 to 10 eyes. Change in lens diameter=Lens diameter in Image b of each test sample−Lens diameter in Image a of each test sample (Equation 1) Lens elasticity improvement of each sample group=Mean change in lens diameter of each Test sample group−Mean change in lens diameter of Vehicle control group (Equation 2) (Results)

lens elasticity [2] = assay: Pharmacological Test 2: effect of sodium 4-phenylbutyrate eye drops on lens elasticity; type: in vivo, C57BL/6J mice; conditions: 3 times per day for 12 to 15 days; for Lens elasticity improvement: 2.5 μL/eye, 8-month-old mice, vs vehicle control
Protocol: The effect of sodium 4-phenylbutyrate on the lens elasticity was examined. A vehicle comprising 0.1% (w/v) of ethyl pyruvate, 0.269% (w/v) of sodium dihydrogenphosphate monohydrate (NaH2PO4H2O), 0.433% (w/v) of disodium hydrogenphosphate (Na2HPO4), 0.2% (w/v) of hydroxypropyl methylcellulose, 0.5% (w/v) of NaCl was prepared. Sodium 4-phenylbutyrate was sonicated with the addition of the vehicle to prepare a 1.5% (w/v) solution. The resulting 1.5% (w/v) solution was diluted with the vehicle to prepare a 0.5% (w/v) solution. Further, the resulting 0.5% (w/v) solution was diluted with the vehicle to prepare a 0.15% (w/v) solution. The total amount of each sample to be used in one day was prepared before use. EV06 was sonicated with the addition of the vehicle to prepare a 1.5% (w/v) solution. The total amount of the sample to be used in one day was prepared before use. 1) Each test sample (2.5 μL/eye) was instilled into the right eye of 8-month-old C57BL/6J mice with a Pipetman 3 times per day (around 9:00, 13:00 and 17:00) for 12 to 15 days. 2) After the final instillation, the mice were euthanized by carbon dioxide inhalation, and then the eyeballs were extracted and rinsed with Hank's balanced salt solution (HBSS). 3) The sclera near the optic nerve was cut with a razor, the lens was removed through the incision, and the removed lens was immersed in HESS. 4) The lens was placed on a glass slide, and an all-in-one fluorescence microscope BZ-9000 (Keyence) was used to capture an image of the lens (Image a). 5) Next, one cover glass (Corning^(registered trade mark) 22×22 mm Square) was placed on the lens, and an image in which the thickness of the lens changed due to the weight was similarly captured (Image b). 6) A change in the lens diameter was calculated from Equation 1 wherein the lens diameter of Image a is subtracted from the lens diameter of Image b, as described below. Then, the lens elasticity improvement of each sample group compared with the vehicle control group was calculated from Equation 2 described below. The mean of the vehicle control group was based on 4 eyes, the mean of each sodium 4-phenylbutyrate sample group and the mean of the EV06 sample group were based on 9-10 eyes. Change in lens diameter=Lens diameter in Image b of each test sample−Lens diameter in Image a of each test sample (Equation 1) Lens elasticity improvement of each sample group=Mean change in lens diameter of each Test sample group−Mean change in lens diameter of Vehicle control group (Equation 2) (Results)

[3] = tested on: anterior segment of the eye; assay: Ocular Irritation Test (McDonald-Shadduck method, lens observation, histopathology); type: in vivo, Japanese White rabbits
Protocol: A vehicle (aqueous solution) comprising 0.1% (w/v) of ethyl pyruvate, 0.269% (w/v) of sodium dihydrogenphosphate monohydrate (NaH2PO4H2O), 0.433% (w/v) of disodium hydrogenphosphate (Na2HPO4), 0.2% (w/v) of hydroxypropyl methylcellulose, 0.5% (w/v) of NaCl was prepared.
0.3% (w/v), 1% (w/v), and 3% (w/v) sodium 4-phenylbutyrate ophthalmic liquids were prepared in the same manner as in the above pharmacological tests. These ophthalmic liquids and the vehicle were each instilled into the left eye of Japanese White rabbits at a dose of 50 μL/eye with pipette twice per day at a 6-hour interval for 2 weeks. One hour after the final instillation, ocular irritation of anterior segment of the eye was evaluated according to the McDonald-Shadduck method, and the lens was observed. The contralateral eye was […].
The ocular irritation of anterior segment of the eye was scored according to the following criteria:
+1: mild; +2: moderate; +3: severe.

lens elasticity [4] = assay: Pharmacological Test 1: effect of EV06 eye drops on lens elasticity (lens diameter change under cover glass); type: in vivo, C57BL/6J mice; conditions: 3 times per day for 15 to 17 days; for Lens elasticity improvement: 2.5 μL/eye, 8-month-old mice, vs vehicle control
Protocol: The effect of lipoic acid choline ester (EV06) on the lens elasticity was examined. The tests were conducted with reference to the methods described in InvestOphthalmol Vis Sci, 57, 2851-2863, 2016. EV06 is a compound represented by the following formula (2): A vehicle comprising 0.1% (w/v) of ethyl pyruvate, 0.269% (w/v) of sodium dihydrogenphosphate monohydrate (NaH2PO4H2O), 0.433% (w/v) of disodium hydrogenphosphate (Na2HPO4), 0.2% (w/v) of hydroxypropyl methylcellulose, and 0.5% (w/v) of NaCl was prepared. EV06 was sonicated with the addition of the vehicle to prepare a 5% (w/v) suspension. The resulting 5% (w/v) suspension was diluted with the vehicle to prepare a 1.5% (w/v) solution. Further, the resulting 1.5% (w/v) solution was diluted with the vehicle to prepare a 0.5% (w/v) solution. The total amount of each sample to be used in one day was prepared before use. 1) Each test sample (2.5 μL/eye) was instilled into the right eye of 8-month-old C57BL/6J mice with a Pipetman 3 times per day (around 9:00, 13:00 and 17:00) for 15 to 17 days. 2) After the final instillation, the mice were euthanized by carbon dioxide inhalation, and then the eyeballs were extracted and rinsed with Hank's balanced salt solution (HBSS). 3) The sclera near the optic nerve was cut with a razor, the lens was removed through the incision, and the removed lens was immersed in HESS. 4) The lens was placed on a glass slide, and an all-in-one fluorescence microscope BZ-9000 (Keyence) was used to capture an image of the lens (Image a). 5) Next, one cover glass (Corning^(registered trade mark) 22×22 mm Square) was placed on the lens, and an image in which the thickness of the lens changed due to the weight was similarly captured (Image b). 6) A change in the lens diameter was calculated from Equation 1 wherein the lens diameter of Image a is subtracted from the lens diameter of Image b, as described below. Then, the lens elasticity improvement of each sample group compared with the vehicle control group was calculated from Equation 2 described below. The mean of the vehicle control group was based on 6 eyes and the mean of each EV06 sample group was based on 12 eyes. Change in lens diameter=Lens diameter in Image b of each test sample−Lens diameter in Image a of each test sample (Equation 1) Lens elasticity improvement of each sample group=Mean change in lens diameter of each EV06 sample group−Mean change in lens diameter of Vehicle control group (Equation 2) (Results)

| Compound | Lens elasticity improvement (lens elasticity [1]; 0.3% (w/v) sample, once per day (QD) for 14 days) | Lens elasticity improvement (in words) (lens elasticity [1]; 0.3%, 1% and 3% samples instilled once-daily for 14 days) | Lens elasticity improvement (lens elasticity [1]; 1.0% (w/v) sample, once per day (QD) for 14 days) | Lens elasticity improvement (lens elasticity [1]; 3.0% (w/v) sample, once per day (QD) for 14 days) | Lens elasticity improvement compared with 1.5% EV06 (lens elasticity [1]; concentrations 1.0% and 3.0%, once-daily for 14 days) | Lens elasticity improvement (lens elasticity [2]; 0.15% (w/v) sample) | Lens elasticity improvement (lens elasticity [2]; 0.5% (w/v) sample) | Lens elasticity improvement (lens elasticity [2]; 1.5% (w/v) sample) | Lens elasticity improving effect compared with EV06 at the same concentration (lens elasticity [2]; 1.5% sample group) | Lens elasticity improving effect (in words) (lens elasticity [2]; all of the 0.15%, 0.5%, and 1.5% groups) | Overall safety of ophthalmic liquids (in words) ([3]; ophthalmic liquids, rabbit 2-week instillation) | Histopathological examination of the eyes (in words) ([3]; rabbit, in vivo) | Observation of ocular irritation of anterior segment of the eye and lens observation (in words) ([3]; rabbit, in vivo) | Lens elasticity improvement (lens elasticity [4]; 0.5% (w/v) sample) | Lens elasticity improvement (lens elasticity [4]; 1.5% (w/v) sample) | Lens elasticity improvement (lens elasticity [4]; 5% (w/v) sample) | Lens elasticity improving effect (in words) (lens elasticity [4]; all of the 0.5%, 1.5%, and 5% groups) | Lens elasticity improvement (lens elasticity [1]; 1.5% (w/v) sample, 3 times per day (TID) for 14 days) | Lens elasticity improvement (lens elasticity [1]; 1.5% (w/v) sample, once per day (QD) for 14 days) |
| --- | --- | --- | --- | --- | --- | --- | --- | --- | --- | --- | --- | --- | --- | --- | --- | --- | --- | --- | --- |
| O=C([O-])CCCc1ccccc1.[Na+] [sodium 4-phenylbutyrate] | 25.6 μm | potent lens elasticity improvement | 30.6 μm | 48.1 μm | more potent lens elasticity improvement compared with 1.5% EV06 | 38.1 μm | 47.5 μm | 51.4 μm | stronger than that of EV06 | potent lens elasticity improving effect | highly safe | showed no abnormal findings | no abnormal findings were observed | – | – | – | – | – | – |
| C[N+](C)(C)CCOC(=O)CCCC[C@@H]1CCSS1.[Cl-] [EV06, lipoic acid choline ester] | – | – | – | – | – | – | – | 49.0 μm | – | – | – | – | – | 28.8 μm | 47.3 μm | 48.7 μm | increased lens diameter compared with the vehicle control group | 47.9 μm | 21.6 μm |

Reference: patent US12290497B2, “Agent containing 4-phenylbutyrate, for preventing or treating presbyopia” (SANTEN PHARMACEUTICAL CO., LTD., priority 2018, dated 2025)
